Results on eight compounds are retold here after ChEMBL document CHEMBL1201862, “PubChem BioAssay data set” (2004).

SMILES strings stand for the structures. Activity calls are given as the source filed them.

For assay [1], the target named is Intestinal-type alkaline phosphatase (Homo sapiens, UniProt P09923). In words: Dose Response confirmation of uHTS hits from a small molecule inhibitors of human intestinal alkaline phosphatase via a luminescent assay. [Related pubchem assays (depositor defined):AID2544, AID2574]. In kind it is functional.
Assay [2] addresses T1, Corticotropin-releasing factor receptor 2/Corticotropin-releasing factor-binding protein (Homo sapiens, UniProt P24387+Q13324).
T1 sequence (Q13324 whole entry): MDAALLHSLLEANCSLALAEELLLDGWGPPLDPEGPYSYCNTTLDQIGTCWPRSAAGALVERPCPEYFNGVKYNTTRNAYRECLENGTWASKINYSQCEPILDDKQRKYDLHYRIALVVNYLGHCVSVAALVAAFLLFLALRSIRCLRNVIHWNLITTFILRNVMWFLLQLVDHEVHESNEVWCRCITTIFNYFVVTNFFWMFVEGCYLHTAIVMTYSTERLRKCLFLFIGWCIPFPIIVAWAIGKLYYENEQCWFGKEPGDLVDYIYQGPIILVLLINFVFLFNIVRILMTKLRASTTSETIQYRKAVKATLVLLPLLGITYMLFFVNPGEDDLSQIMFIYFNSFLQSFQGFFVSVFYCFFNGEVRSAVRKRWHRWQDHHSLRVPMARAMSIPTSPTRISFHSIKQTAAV
T1 sequence (P24387 whole entry): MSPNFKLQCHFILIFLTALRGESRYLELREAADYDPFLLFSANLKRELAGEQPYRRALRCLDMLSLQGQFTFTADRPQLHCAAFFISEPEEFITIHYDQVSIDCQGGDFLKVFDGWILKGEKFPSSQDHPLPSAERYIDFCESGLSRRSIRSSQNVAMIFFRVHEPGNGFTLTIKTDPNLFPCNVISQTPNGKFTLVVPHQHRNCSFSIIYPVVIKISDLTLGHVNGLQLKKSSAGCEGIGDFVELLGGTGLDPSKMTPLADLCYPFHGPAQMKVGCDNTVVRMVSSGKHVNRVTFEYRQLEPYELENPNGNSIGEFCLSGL
Description: Dose Response confirmation of uHTS hits for small molecule antagonists of the CRF-binding protein and CRF-R2 receptor complex. It is filed as functional. As to conditions: read-out: IC50_Mean.

The target of assay [3] is T1, Corticotropin-releasing factor receptor 2/Corticotropin-releasing factor-binding protein. In words: activators of CRF receptor 2 with binding protein – uHTS hits, confirmation (AID 602473). It is filed as functional. The following applies: read-out: EC50_Mean.
For the next assay, the target named is Large T antigen (Simian virus 40, UniProt P03070). Description: A confirmatory biochemical assay using the ADP-Hunter methodology, purified TAg, and ATP to quantify activity of synthesized compounds that inhibit the ATPase activity of Tag (3). [Related pubchem assays (depositor defined):AID1903, AID1909, AID2102, AID2501, AID2615, AID2775, AID435001, AID449729]. Also noted: species or system Betapolyomavirus macacae.

Assay [4] deals with T2, Neuropeptide Y receptor type 1 (Homo sapiens, UniProt P25929).
T2 sequence (P25929 whole entry): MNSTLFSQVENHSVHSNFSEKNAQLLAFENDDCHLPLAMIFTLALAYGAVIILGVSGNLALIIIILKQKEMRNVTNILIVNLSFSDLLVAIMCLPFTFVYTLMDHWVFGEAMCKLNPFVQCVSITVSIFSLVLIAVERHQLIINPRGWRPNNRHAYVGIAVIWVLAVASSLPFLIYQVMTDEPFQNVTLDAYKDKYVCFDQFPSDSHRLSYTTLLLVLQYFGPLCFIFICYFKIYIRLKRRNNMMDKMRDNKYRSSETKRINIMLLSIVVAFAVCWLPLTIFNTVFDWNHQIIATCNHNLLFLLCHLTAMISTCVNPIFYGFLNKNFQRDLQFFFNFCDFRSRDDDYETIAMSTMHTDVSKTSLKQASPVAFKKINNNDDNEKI
It is filed as functional.

Assay [5] deals with Luciferin 4-monooxygenase (Photinus pyralis, UniProt P08659). In words: firefly luciferase enzyme inhibitors, dose response, biochemical, luminescence (AID 1891).
Assay [6] can be described thus: Luminescence Cell-Based Dose Confirmation HTS to Identify Inhibitors of Platelet Dense Granule Release. [Related pubchem assays: 1663 (Primary HTS), 1678 (Summary of Project)]. It is filed as functional.
Assay [7] concerns the target T3, Neuropeptide Y receptor type 2 (Homo sapiens, UniProt P49146).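 Note: HEK293 cells expressing the receptor and a CNG channel; stimulus was NPY near EC95 followed by isoproterenol to raise cAMP; antagonist potency measured as restoring cAMP signal that NPY suppresses.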
T3 sequence (P49146 whole entry): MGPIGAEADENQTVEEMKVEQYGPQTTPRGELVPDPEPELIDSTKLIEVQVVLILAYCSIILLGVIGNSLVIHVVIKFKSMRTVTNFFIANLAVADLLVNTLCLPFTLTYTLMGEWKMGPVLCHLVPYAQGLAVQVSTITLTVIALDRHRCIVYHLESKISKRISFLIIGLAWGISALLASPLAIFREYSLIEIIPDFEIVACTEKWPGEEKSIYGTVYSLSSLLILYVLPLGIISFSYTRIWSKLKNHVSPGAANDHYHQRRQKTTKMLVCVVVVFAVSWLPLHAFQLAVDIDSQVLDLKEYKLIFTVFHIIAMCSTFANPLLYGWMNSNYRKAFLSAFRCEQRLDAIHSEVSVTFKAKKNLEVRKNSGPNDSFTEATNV
It is filed as functional, cell-based.

The subject of another assay is Saccharomyces cerevisiae. In words: NALP1 inhibitor project selectivity study, Caspase-1/ASC signal blockade IC50 in S. cerevisiae (AID 488863). In kind it is functional, organism-based.
Assay [8] deals with NACHT, LRR and PYD domains-containing protein 1 (Homo sapiens, UniProt Q9C000). Description: NALP1 inhibitors in yeast, dose response, luminescent (AID 488860). In kind it is functional.
For assay [9], the target named is Eukaryotic translation initiation factor 4H (Homo sapiens, UniProt Q15056). In words: eIF4H inhibition in translation initiation, SAR follow-up (AID 435011). It is filed as functional.
Assay [10] has as its target Polyadenylate-binding protein 1 (Homo sapiens, UniProt P11940). In words: PABP inhibition in translation initiation, SAR follow-up (AID 435018). It is filed as functional.
Assay [11] in a line: inhibition of K1F phage lysis, E. coli UTI89, bacterial capsule biogenesis inhibitors, alamar blue (AID 488966). In kind it is functional.
Assay [12] concerns the target G-protein coupled receptor 35 (Homo sapiens, UniProt Q9HC97). In words: GPR35 antagonists blocking zaprinast-driven arrestin recruitment, primary screen, imaging, U2OS, beta-arrestin-GFP, zaprinast agonist (AID 2058).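 Note: antagonist potency meaning inhibition of agonist-induced arrestin redistribution.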 It is filed as functional.
In assay [13] the target is T4, Replicative DNA helicase DnaB (Mycobacterium tuberculosis, UniProt P9WMR3).
T4 sequence (P9WMR3 whole entry): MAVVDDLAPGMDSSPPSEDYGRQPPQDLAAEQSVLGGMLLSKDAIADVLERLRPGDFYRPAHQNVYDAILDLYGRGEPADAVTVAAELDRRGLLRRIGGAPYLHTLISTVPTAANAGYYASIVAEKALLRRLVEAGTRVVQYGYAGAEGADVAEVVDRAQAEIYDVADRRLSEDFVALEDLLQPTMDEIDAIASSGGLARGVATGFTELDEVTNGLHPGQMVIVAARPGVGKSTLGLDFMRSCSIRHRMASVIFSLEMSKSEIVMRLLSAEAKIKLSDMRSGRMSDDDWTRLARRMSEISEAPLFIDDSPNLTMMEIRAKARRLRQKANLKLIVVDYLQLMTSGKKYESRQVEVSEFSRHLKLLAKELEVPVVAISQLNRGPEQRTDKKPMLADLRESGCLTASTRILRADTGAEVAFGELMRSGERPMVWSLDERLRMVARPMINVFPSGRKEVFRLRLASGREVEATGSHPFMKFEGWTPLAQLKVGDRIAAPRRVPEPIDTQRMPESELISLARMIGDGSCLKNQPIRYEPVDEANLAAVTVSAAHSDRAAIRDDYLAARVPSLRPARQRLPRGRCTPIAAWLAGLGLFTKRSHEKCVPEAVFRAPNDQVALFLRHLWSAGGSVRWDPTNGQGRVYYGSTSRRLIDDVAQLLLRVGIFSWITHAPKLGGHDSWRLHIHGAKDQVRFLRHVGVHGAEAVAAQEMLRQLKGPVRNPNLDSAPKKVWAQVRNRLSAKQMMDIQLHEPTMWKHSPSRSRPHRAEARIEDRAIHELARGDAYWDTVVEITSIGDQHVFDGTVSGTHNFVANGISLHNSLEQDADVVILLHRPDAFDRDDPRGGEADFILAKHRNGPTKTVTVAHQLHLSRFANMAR
In words: DnaB intein splicing inhibitors, dose response, biochemical, cell-free fluorescence (AID 449749). It is filed as functional.

In the next assay the target is T5, Protein RecA (Mycobacterium tuberculosis, UniProt P9WHJ3).
T5 sequence (P9WHJ3 whole entry): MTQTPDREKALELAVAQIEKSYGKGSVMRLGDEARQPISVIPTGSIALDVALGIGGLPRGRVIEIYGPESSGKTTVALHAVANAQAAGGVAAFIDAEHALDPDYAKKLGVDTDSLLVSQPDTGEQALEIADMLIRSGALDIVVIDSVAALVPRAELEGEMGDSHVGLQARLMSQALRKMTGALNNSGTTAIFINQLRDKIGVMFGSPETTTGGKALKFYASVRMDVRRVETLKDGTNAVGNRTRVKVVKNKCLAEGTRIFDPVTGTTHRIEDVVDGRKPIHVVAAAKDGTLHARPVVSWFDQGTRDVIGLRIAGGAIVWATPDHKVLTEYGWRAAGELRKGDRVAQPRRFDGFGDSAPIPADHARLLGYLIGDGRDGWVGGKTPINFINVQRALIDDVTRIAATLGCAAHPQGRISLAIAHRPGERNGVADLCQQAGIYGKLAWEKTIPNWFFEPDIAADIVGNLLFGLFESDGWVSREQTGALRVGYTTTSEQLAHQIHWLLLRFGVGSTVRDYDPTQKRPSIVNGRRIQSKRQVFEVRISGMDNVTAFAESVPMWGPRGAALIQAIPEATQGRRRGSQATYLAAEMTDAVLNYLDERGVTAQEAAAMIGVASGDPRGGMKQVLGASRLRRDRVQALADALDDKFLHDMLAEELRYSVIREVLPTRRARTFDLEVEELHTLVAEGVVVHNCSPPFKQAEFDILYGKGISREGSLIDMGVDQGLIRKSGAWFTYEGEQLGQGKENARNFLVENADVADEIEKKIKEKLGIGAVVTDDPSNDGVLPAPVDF
Description: Fluorescence Cell-Free Homogeneous Dose Retest to Identify Inhibitors of RecA-Intein Splicing Activity. [Related pubchem assays (depositor defined):AID2097, AID2223, AID489010, AID492950]. It is filed as functional.

A short description of assay [14]: cytotoxicity in BJeHLT fibroblasts, dose response, counter-screen for Ras selective lethality project, BJeHLT cells, dry powder (AID 493052). It is filed as functional, cell-based. The following applies: Homo sapiens.
The nature of assay [15]: viability loss in HRASV12 DRD fibroblasts, dose response, cell-based, DRD BJ fibroblasts, dry powder (AID 493049). It is filed as functional.
The nature of assay [16]: viability loss in BJeLR (HRASV12) cells, primary screen, Ras selective lethality project, cell-based, Alamar Blue, dry powder (AID 493045). In kind it is functional.
Assay [17] can be described thus: cytotoxicity in BJeH fibroblasts, dose response, counter-screen for Ras selective lethality project, BJeH cells, dry powder (AID 493054). It is filed as functional, cell-based.
For assay [18], the target named is T6, Kappa-type opioid receptor (Homo sapiens, UniProt P41145). It is filed as functional.
Assay [19] addresses T6, Kappa-type opioid receptor. It is filed as functional. This is another data set of the same source.
Assay [20] has as its target T7, Mu-type opioid receptor (Homo sapiens, UniProt P35372). In words: MOR agonists by imaging, SAR follow-up, image-based (AID 2352). In kind it is functional.
The target of assay [21] is T8, Delta-type opioid receptor (Homo sapiens, UniProt P41143). Description: DOR agonists, SAR follow-up, image-based (AID 2370). In kind it is functional.
Assay [22] addresses T6, Kappa-type opioid receptor. Description: KOR antagonists by imaging, SAR follow-up, image-based (AID 2348). It is filed as functional.
For assay [23], the target named is T7, Mu-type opioid receptor. Description: MOR antagonists, SAR follow-up, image-based (AID 2420).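 Note: compounds added before stimulation of receptor with agonist DAMGO.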 It is filed as functional.
The target of assay [24] is T8, Delta-type opioid receptor. Description: DOR antagonists, SAR follow-up, image-based (AID 2357). It is filed as functional.

T6 sequence (P41145 whole entry): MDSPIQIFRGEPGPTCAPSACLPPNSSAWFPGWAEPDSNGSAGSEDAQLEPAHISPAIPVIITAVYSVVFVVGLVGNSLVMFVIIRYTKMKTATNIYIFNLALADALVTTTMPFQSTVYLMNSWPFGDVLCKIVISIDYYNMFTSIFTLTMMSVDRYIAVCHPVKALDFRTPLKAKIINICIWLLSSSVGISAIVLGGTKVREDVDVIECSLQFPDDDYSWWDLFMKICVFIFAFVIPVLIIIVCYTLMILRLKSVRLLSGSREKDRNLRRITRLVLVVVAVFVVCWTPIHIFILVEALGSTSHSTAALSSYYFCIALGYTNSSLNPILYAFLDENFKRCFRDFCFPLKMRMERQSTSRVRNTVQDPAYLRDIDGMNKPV
T7 sequence (P35372 whole entry): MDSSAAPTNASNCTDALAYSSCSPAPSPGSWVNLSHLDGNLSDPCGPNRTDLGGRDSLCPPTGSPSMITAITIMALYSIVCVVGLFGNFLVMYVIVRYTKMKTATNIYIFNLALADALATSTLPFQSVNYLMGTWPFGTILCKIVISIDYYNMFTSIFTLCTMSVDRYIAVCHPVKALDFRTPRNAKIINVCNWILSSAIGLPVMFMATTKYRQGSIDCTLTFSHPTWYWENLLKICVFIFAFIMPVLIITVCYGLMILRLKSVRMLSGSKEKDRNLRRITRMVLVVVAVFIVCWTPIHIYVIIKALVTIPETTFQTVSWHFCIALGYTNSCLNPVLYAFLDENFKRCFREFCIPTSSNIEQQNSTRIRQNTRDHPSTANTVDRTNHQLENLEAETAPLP
T8 sequence (P41143 whole entry): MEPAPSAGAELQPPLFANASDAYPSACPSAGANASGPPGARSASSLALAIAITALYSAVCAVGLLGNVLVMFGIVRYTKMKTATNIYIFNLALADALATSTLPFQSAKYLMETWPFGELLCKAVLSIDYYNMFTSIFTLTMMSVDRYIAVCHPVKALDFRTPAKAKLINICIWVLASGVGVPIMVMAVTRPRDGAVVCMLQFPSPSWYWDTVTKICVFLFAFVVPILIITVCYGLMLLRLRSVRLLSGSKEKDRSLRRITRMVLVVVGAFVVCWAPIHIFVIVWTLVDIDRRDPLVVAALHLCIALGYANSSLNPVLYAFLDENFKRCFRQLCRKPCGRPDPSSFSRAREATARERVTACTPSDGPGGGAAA
Large T antigen, sequence (P03070 whole entry): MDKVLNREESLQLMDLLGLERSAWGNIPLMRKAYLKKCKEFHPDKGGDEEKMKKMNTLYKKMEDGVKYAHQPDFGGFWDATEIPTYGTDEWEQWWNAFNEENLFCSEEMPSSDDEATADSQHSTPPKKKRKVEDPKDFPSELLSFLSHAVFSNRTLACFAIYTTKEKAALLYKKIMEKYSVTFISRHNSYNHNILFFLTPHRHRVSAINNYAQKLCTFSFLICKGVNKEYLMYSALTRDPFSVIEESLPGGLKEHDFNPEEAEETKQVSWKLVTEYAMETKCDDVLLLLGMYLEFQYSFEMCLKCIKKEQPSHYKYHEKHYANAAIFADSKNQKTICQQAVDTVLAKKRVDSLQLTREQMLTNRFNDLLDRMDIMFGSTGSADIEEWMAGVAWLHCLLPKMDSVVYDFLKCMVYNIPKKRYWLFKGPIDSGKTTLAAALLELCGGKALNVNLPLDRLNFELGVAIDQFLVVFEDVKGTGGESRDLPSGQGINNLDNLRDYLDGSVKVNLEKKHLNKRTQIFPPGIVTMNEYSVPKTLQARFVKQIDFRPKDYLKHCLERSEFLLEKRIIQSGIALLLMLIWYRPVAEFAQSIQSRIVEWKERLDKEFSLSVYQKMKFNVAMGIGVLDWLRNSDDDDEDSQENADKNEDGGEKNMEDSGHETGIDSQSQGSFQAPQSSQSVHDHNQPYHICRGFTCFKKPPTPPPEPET
Polyadenylate-binding protein 1, sequence (P11940 whole entry): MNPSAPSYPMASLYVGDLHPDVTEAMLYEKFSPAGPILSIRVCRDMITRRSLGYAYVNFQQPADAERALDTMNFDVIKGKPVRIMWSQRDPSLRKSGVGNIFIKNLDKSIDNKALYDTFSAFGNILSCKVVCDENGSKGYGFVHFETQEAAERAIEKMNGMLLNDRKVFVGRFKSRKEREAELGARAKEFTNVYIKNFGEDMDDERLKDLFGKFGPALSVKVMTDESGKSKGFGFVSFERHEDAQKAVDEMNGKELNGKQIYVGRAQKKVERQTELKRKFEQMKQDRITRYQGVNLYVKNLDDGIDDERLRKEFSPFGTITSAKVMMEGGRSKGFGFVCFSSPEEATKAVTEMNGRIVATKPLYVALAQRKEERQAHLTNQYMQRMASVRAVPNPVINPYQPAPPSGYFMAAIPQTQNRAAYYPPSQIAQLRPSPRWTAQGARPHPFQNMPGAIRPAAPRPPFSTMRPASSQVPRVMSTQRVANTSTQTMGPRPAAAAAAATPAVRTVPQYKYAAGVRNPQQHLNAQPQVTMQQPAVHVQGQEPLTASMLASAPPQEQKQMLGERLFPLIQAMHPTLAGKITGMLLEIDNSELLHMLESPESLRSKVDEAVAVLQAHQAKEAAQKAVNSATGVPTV
Intestinal-type alkaline phosphatase, sequence (P09923 whole entry): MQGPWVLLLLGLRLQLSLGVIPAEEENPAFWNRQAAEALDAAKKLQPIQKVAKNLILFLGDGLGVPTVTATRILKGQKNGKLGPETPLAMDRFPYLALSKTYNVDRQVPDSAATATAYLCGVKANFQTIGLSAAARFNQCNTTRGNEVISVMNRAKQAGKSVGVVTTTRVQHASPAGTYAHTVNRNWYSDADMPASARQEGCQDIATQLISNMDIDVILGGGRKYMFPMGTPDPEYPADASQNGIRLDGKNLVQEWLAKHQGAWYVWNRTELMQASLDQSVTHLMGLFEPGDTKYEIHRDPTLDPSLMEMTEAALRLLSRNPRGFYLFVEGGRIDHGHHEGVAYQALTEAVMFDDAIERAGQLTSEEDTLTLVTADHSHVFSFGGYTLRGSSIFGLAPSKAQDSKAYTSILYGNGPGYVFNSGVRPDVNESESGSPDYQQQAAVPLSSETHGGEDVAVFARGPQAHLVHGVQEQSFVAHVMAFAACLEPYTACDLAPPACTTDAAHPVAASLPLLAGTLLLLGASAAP
Luciferin 4-monooxygenase, sequence (P08659 whole entry): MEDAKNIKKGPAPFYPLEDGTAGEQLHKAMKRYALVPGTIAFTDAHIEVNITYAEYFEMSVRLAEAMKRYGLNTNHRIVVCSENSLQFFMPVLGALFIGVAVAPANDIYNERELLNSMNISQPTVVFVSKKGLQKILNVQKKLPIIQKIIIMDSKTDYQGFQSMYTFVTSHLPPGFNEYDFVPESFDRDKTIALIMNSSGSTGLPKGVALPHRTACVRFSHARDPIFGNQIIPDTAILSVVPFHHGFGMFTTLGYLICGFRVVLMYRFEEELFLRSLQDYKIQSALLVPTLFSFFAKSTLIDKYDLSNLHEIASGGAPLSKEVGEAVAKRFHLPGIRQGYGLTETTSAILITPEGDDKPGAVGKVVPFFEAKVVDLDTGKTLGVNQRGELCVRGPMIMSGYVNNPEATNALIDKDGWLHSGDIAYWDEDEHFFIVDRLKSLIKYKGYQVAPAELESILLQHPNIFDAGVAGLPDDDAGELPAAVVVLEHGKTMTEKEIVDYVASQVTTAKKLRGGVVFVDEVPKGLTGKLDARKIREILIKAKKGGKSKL
G-protein coupled receptor 35, sequence (Q9HC97 whole entry): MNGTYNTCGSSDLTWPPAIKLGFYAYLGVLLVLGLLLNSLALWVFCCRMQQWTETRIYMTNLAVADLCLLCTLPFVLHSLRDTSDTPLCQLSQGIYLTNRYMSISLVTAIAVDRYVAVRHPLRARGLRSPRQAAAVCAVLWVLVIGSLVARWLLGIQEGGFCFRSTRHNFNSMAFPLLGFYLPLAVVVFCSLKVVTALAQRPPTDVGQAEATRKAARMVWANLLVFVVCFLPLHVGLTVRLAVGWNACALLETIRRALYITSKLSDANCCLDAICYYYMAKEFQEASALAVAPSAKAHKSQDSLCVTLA

With `Cc1ccccc1CNC(=O)c1ccccc1N`, the IC50 is > 100 µM (inactive) in [1] and > 47.1 µM (inactive) in assay [2]. For the same compound, in assay [3], the EC50 was > 53 µM (inactive).

Regarding `Oc1ccc(Oc2ccc(O)cc2)cc1`, the IC50 on Large T antigen is 37.7 µM (active).

On to `COc1cc(/C=N/n2cnnc2)ccc1OCc1ccc(C)cc1`, for which the IC50 was 7.08 µM (active) in assay [4], 4.18 µM (active) in assay [7], > 100 µM (inactive) with Saccharomyces cerevisiae and > 100 µM (inactive) in [8]. Also, the EC50 in assay [5] is > 112 µM (not active); in [6], 20.8 µM (active).

For `COc1ccccc1N=C1SC(C(=O)Nc2ccc(F)cc2)CC(=O)N1C` (configuration not stated), the IC50 in assay [9] and in [10] was > 100 µM (inactive) each time.

Take `CC/C(=C(/c1ccccc1)c1ccc(OCC[N+](C)(C)C)cc1)c1ccccc1`: the IC50 in [11] is > 150 µM (active).

Regarding `CC1(CC(=O)N/N=C/c2ccc(OCc3ccc(Cl)cc3Cl)cc2)OCCCO1`, the IC50 in assay [12] is < 500 nM (active). The AC50 in assay [13] was 3.09 µM (active). Also, on Protein RecA, the EC50 was 11.1 µM (active).

On to `COc1ccc(N(C(=O)CCl)C(C(=O)NCc2ccccc2)c2cccs2)cc1Cl` (configuration not stated), for which the AC50 in assay [14] is 179 nM (active); in assay [15] it was 98 nM (active); in assay [16], 75 nM (active); in assay [17], 336 nM (active).

Consider `CC(C)(C)c1ccc(CSc2nnc(-c3ccccn3)n2Cc2ccco2)cc1`, for which the EC50 was 1020 nM in assay [18], 2180 nM in [19], > 32 µM (inactive) at Mu-type opioid receptor [20] and > 32 µM (inactive) in assay [21]. Also, the IC50 (in [22]; at Mu-type opioid receptor [23]; in assay [24]) was > 32 µM (inactive) each time.
